Where a name gives a salt, the structure may show the parent alone.

One assay concerns the target T1, thromboxane synthetase from rabbit platelet microsomes (Oryctolagus cuniculus, UniProt G1TAZ9).
T1 construct: thromboxane synthetase from rabbit platelet microsomes; from tissue; host or cells: rabbit platelet microsomes
T1 sequence (G1TAZ9 1-530): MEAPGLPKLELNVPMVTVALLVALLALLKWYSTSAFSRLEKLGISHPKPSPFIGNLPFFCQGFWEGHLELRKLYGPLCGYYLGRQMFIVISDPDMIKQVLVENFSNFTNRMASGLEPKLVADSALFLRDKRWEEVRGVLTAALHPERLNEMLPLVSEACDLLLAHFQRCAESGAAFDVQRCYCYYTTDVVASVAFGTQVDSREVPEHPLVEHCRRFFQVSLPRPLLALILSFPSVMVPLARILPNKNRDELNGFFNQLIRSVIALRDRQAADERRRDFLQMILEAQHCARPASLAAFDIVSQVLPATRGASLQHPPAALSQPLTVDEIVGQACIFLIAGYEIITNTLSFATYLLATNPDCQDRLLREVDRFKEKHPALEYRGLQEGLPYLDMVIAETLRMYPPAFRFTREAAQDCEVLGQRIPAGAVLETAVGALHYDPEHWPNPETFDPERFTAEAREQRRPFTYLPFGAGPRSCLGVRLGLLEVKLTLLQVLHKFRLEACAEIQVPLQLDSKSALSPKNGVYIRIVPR
Briefly: inhibition of thromboxane synthetase from rabbit platelet microsomes (conversion of prostaglandin H2 into thromboxane B2). The class given is biochemical. Particulars: read-out: molar concentration producing a 50% inhibition of thromboxane synthetase. From the text:
[Nature, Vol. 261, No. 6, 17-, (1976)].
The inhibitory action of the imidazole derivatives of this invention can be confirmed by determination of thromboxane B2 produced by thromboxane synthetase from prostaglandin H2 via thromboxane A2.
Take `CC(=Cc1ccc(Cn2ccnc2)cc1)C(=O)O` [P-(1-imidazolylmethyl)-α-methylcinnamic acid hydrochloric acid salt]: the IC50 was 4 nM.

The next assay concerns thromboxane synthetase.
Assay: not given
Particulars: literature reports; cited from earlier work.
On to `CC(C)c1ccccc1-n1ccnc1` [1-(2-isopropylphenyl)imidazole], for which the “inhibitory effect on thromboxane synthetase (in words, prior art)” value (from here on “inhibitory effect … (in words, prior art)”) was “strong inhibitory effect”.

Take `COC(=O)CCCCCCn1ccnc1` [1-(6-methoxycarbonylhexyl) imidazole]: the “inhibitory effect … (in words, prior art)” value is reported as “inhibitory effect”. For `c1ccc(Cn2ccnc2)cc1` [1-benzylimidazole], the “inhibitory effect … (in words, prior art)” value is “strong inhibitory effect”. As to `CCCCCCCCCCn1ccnc1` [1-decylimidazole], the “inhibitory effect … (in words, prior art)” value is listed as “strong inhibitory effect”. For the molecule `CCCCCCCCCn1ccnc1` [1-nonylimidazole], the “inhibitory effect … (in words, prior art)” value is on record as “strong inhibitory effect”. `c1c[nH]cn1` [imidazole]: the “inhibitory effect … (in words, prior art)” value is “very weak inhibitory effect”.

The values above are taken from US4226878A, “Imidazole derivative” (Kissei Pharmaceutical Co., Ltd., priority 1978, dated 1980).
